The source made the active and inactive calls. The calls are words filed in the database; no cut-off is given here.
Columns and labels:
Plasmodium gallinaceum [1] = experiment: Antimalarial activity against trophozoite-induced Plasmodium gallinaceum infected in white leghorn chicken assessed as disease cure from parasite infection at 320 mg/kg, sc administered 72 hrs after infection; format: functional, organism-based; design: dose 320 mg/kg
Plasmodium gallinaceum [2] = experiment: Antimalarial activity against trophozoite-induced Plasmodium gallinaceum infected in white leghorn chicken assessed as disease cure from parasite infection at 160 mg/kg, sc administered 72 hrs after infection; format: functional, organism-based; design: dose 160 mg/kg
Enterococcus faecalis = experiment: Antibacterial activity against Streptococcus faecalis MGH-2 by gradient plate test; format: functional
Staphylococcus aureus [3] = experiment: Antibacterial activity against Staphylococcus aureus UC-96 by gradient plate test; format: functional
Staphylococcus aureus [4] = experiment: Antibacterial activity against drug-resistant Staphylococcus aureus S18713 by gradient plate test; format: functional
Pseudomonas aeruginosa = experiment: Antibacterial activity against Pseudomonas aeruginosa 28 by gradient plate test; format: functional
Escherichia coli = experiment: Antibacterial activity against Escherichia coli Vogel by gradient plate test; format: functional
Shigella sonnei = experiment: Antibacterial activity against Shigella sonnei C-10 by gradient plate test; format: functional
Plasmodium gallinaceum [5] = experiment: Antimalarial activity against sporozoite-induced Plasmodium gallinaceum infected in white leghorn chicken assessed as disease cure from parasite infection at 320 mg/kg, sc administered 72 hrs after infection; format: functional, organism-based; design: dose 320 mg/kg
Gallus gallus [6] = experiment: Toxicity in sporozoite-induced Plasmodium gallinaceum infected white leghorn chicken assessed as mortality at 320 mg/kg, sc administered 72 hrs after infection measured up to 6 days; format: organism-based; design: dose 320 mg/kg, route subcutaneous; conditions: in vivo
Plasmodium gallinaceum [7] = experiment: Antimalarial activity against sporozoite-induced Plasmodium gallinaceum infected in white leghorn chicken assessed as disease cure from parasite infection at 160 mg/kg, sc administered 72 hrs after infection; format: functional, organism-based; design: dose 160 mg/kg
Gallus gallus [8] = experiment: Toxicity in sporozoite-induced Plasmodium gallinaceum infected white leghorn chicken assessed as mortality at 160 mg/kg, sc administered 72 hrs after infection measured up to 6 days; format: organism-based; design: dose 160 mg/kg, route subcutaneous; conditions: in vivo
Plasmodium gallinaceum [9] = experiment: Antimalarial activity against sporozoite-induced Plasmodium gallinaceum infected in white leghorn chicken assessed as increase in mean survival days of host at 80 mg/kg, sc administered 72 hrs after infection relative to control; format: functional; conditions: route subcutaneous
Plasmodium gallinaceum [10] = experiment: Antimalarial activity against sporozoite-induced Plasmodium gallinaceum infected in white leghorn chicken assessed as disease cure from parasite infection at 80 mg/kg, sc administered 72 hrs after infection; format: functional, organism-based; design: dose 80 mg/kg
Plasmodium gallinaceum [11] = experiment: Antimalarial activity against sporozoite-induced Plasmodium gallinaceum infected in white leghorn chicken assessed as increase in mean survival days of host at 40 mg/kg, sc administered 72 hrs after infection relative to control; format: functional; conditions: route subcutaneous
Plasmodium gallinaceum [12] = experiment: Antimalarial activity against sporozoite-induced Plasmodium gallinaceum infected in white leghorn chicken assessed as disease cure from parasite infection at 40 mg/kg, sc administered 72 hrs after infection; format: functional, organism-based; design: dose 40 mg/kg
Plasmodium gallinaceum [13] = experiment: Antimalarial activity against sporozoite-induced Plasmodium gallinaceum infected in white leghorn chicken assessed as increase in mean survival days of host at 20 mg/kg, sc administered 72 hrs after infection relative to control; format: functional; conditions: route subcutaneous
Plasmodium gallinaceum [14] = experiment: Antimalarial activity against sporozoite-induced Plasmodium gallinaceum infected in white leghorn chicken assessed as disease cure from parasite infection at 20 mg/kg, sc administered 72 hrs after infection; format: functional, organism-based; design: dose 20 mg/kg
Plasmodium gallinaceum [15] = experiment: Antimalarial activity against sporozoite-induced Plasmodium gallinaceum infected in white leghorn chicken assessed as increase in mean survival days of host at 10 mg/kg, sc administered 72 hrs after infection relative to control; format: functional; conditions: route subcutaneous
Plasmodium gallinaceum [16] = experiment: Antimalarial activity against sporozoite-induced Plasmodium gallinaceum infected in white leghorn chicken assessed as disease cure from parasite infection at 10 mg/kg, sc administered 72 hrs after infection; format: functional, organism-based; design: dose 10 mg/kg
Plasmodium berghei [17] = experiment: Antimalarial activity against Plasmodium berghei infected in mouse assessed as increase in mean survival days of host at 20 mg/kg, sc administered 72 hrs after infection relative to control; format: functional; conditions: route subcutaneous
Plasmodium berghei [18] = experiment: Antimalarial activity against Plasmodium berghei infected in mouse assessed as increase in mean survival days of host at 10 mg/kg, sc administered 72 hrs after infection relative to control; format: functional; conditions: route subcutaneous
Plasmodium berghei [19] = experiment: Antimalarial activity against Plasmodium berghei infected in mouse assessed as increase in mean survival days of host at 5 mg/kg, sc administered 72 hrs after infection relative to control; format: functional; conditions: route subcutaneous
Plasmodium berghei [20] = experiment: Antimalarial activity against Plasmodium berghei infected in mouse assessed as increase in mean survival days of host at 2.5 mg/kg, sc administered 72 hrs after infection relative to control; format: functional; conditions: route subcutaneous
Plasmodium berghei [21] = experiment: Antimalarial activity against Plasmodium berghei infected in mouse assessed as increase in mean survival days of host at 1.25 mg/kg, sc administered 72 hrs after infection relative to control; format: functional; conditions: route subcutaneous
Plasmodium berghei [22] = experiment: Antimalarial activity against Plasmodium berghei infected in mouse assessed as disease cure from parasite infection at 640 mg/kg, sc administered 72 hrs after infection; format: functional, organism-based; design: dose 640 mg/kg
Plasmodium berghei [23] = experiment: Antimalarial activity against Plasmodium berghei infected in mouse assessed as disease cure from parasite infection at 320 mg/kg, sc administered 72 hrs after infection; format: functional, organism-based; design: dose 320 mg/kg
Plasmodium berghei [24] = experiment: Antimalarial activity against Plasmodium berghei infected in mouse assessed as disease cure from parasite infection at 160 mg/kg, sc administered 72 hrs after infection; format: functional, organism-based; design: dose 160 mg/kg
Plasmodium berghei [25] = experiment: Antimalarial activity against Plasmodium berghei infected in mouse assessed as disease cure from parasite infection at 80 mg/kg, sc administered 72 hrs after infection; format: functional, organism-based; design: dose 80 mg/kg
Plasmodium berghei [26] = experiment: Antimalarial activity against Plasmodium berghei infected in mouse assessed as disease cure from parasite infection at 40 mg/kg, sc administered 72 hrs after infection; format: functional, organism-based; design: dose 40 mg/kg
Plasmodium berghei [27] = experiment: Antimalarial activity against Plasmodium berghei infected in mouse assessed as disease cure from parasite infection at 20 mg/kg, sc administered 72 hrs after infection; format: functional, organism-based; design: dose 20 mg/kg
Plasmodium berghei [28] = experiment: Antimalarial activity against trophozoite-induced Plasmodium berghei infected in mouse assessed as daily dose required to suppression of 90% parasite infection administered with diet for 6 days; format: functional
Plasmodium berghei [29] = experiment: Ratio of quinine hydrochloride SD90 to compound SD90 for trophozoite-induced Plasmodium berghei infected in mouse assessed as daily dose required to suppression of 90% parasite infection administered with diet for 6 days; format: functional
Plasmodium gallinaceum [30] = experiment: Antimalarial activity against trophozoite-induced Plasmodium gallinaceum infected in white leghorn chicken assessed as increase in mean survival days of host at 320 mg/kg, sc administered 72 hrs after infection relative to control; format: functional; conditions: route subcutaneous
Plasmodium gallinaceum [31] = experiment: Antimalarial activity against trophozoite-induced Plasmodium gallinaceum infected in white leghorn chicken assessed as increase in mean survival days of host at 160 mg/kg, sc administered 72 hrs after infection relative to control; format: functional; conditions: route subcutaneous
Plasmodium gallinaceum [32] = experiment: Antimalarial activity against trophozoite-induced Plasmodium gallinaceum infected in white leghorn chicken assessed as increase in mean survival days of host at 80 mg/kg, sc administered 72 hrs after infection relative to control; format: functional; conditions: route subcutaneous
Plasmodium gallinaceum [33] = experiment: Antimalarial activity against trophozoite-induced Plasmodium gallinaceum infected in white leghorn chicken assessed as increase in mean survival days of host at 40 mg/kg, sc administered 72 hrs after infection relative to control; format: functional; conditions: route subcutaneous
Plasmodium gallinaceum [34] = experiment: Antimalarial activity against trophozoite-induced Plasmodium gallinaceum infected in white leghorn chicken assessed as increase in mean survival days of host at 20 mg/kg, sc administered 72 hrs after infection relative to control; format: functional; conditions: route subcutaneous
Plasmodium gallinaceum [35] = experiment: Antimalarial activity against trophozoite-induced Plasmodium gallinaceum infected in white leghorn chicken assessed as increase in mean survival days of host at 10 mg/kg, sc administered 72 hrs after infection relative to control; format: functional; conditions: route subcutaneous
Plasmodium gallinaceum [36] = experiment: Antimalarial activity against trophozoite-induced Plasmodium gallinaceum infected in white leghorn chicken assessed as increase in mean survival days of host at 5 mg/kg, sc administered 72 hrs after infection relative to control; format: functional; conditions: route subcutaneous
Plasmodium gallinaceum [37] = experiment: Antimalarial activity against trophozoite-induced Plasmodium gallinaceum infected in white leghorn chicken assessed as increase in mean survival days of host at 2.5 mg/kg, sc administered 72 hrs after infection relative to control; format: functional; conditions: route subcutaneous
Plasmodium gallinaceum [38] = experiment: Antimalarial activity against trophozoite-induced Plasmodium gallinaceum infected in white leghorn chicken assessed as increase in mean survival days of host at 1.25 mg/kg, sc administered 72 hrs after infection relative to control; format: functional; conditions: route subcutaneous
Plasmodium gallinaceum [39] = experiment: Antimalarial activity against trophozoite-induced Plasmodium gallinaceum infected in white leghorn chicken assessed as increase in mean survival days of host at 0.63 mg/kg, sc administered 72 hrs after infection relative to control; format: functional; conditions: route subcutaneous
Plasmodium gallinaceum [40] = experiment: Antimalarial activity against trophozoite-induced Plasmodium gallinaceum infected in white leghorn chicken assessed as disease cure from parasite infection at 80 mg/kg, sc administered 72 hrs after infection; format: functional, organism-based; design: dose 80 mg/kg
Plasmodium gallinaceum [41] = experiment: Antimalarial activity against trophozoite-induced Plasmodium gallinaceum infected in white leghorn chicken assessed as disease cure from parasite infection at 40 mg/kg, sc administered 72 hrs after infection; format: functional, organism-based; design: dose 40 mg/kg
Plasmodium gallinaceum [42] = experiment: Antimalarial activity against sporozoite-induced Plasmodium gallinaceum infected in white leghorn chicken assessed as disease cure from parasite infection at 480 mg/kg, sc administered 72 hrs after infection; format: functional, organism-based; design: dose 480 mg/kg
Plasmodium gallinaceum [43] = experiment: Antimalarial activity against sporozoite-induced Plasmodium gallinaceum infected in white leghorn chicken assessed as disease cure from parasite infection at 240 mg/kg, sc administered 72 hrs after infection; format: functional, organism-based; design: dose 240 mg/kg
Plasmodium gallinaceum [44] = experiment: Antimalarial activity against sporozoite-induced Plasmodium gallinaceum infected in white leghorn chicken assessed as disease cure from parasite infection at 120 mg/kg, sc administered 72 hrs after infection; format: functional, organism-based; design: dose 120 mg/kg
Plasmodium gallinaceum [45] = experiment: Antimalarial activity against sporozoite-induced Plasmodium gallinaceum infected in white leghorn chicken assessed as disease cure from parasite infection at 60 mg/kg, sc administered 72 hrs after infection; format: functional, organism-based; design: dose 60 mg/kg
Plasmodium gallinaceum [46] = experiment: Antimalarial activity against sporozoite-induced Plasmodium gallinaceum infected in white leghorn chicken assessed as disease cure from parasite infection at 30 mg/kg, sc administered 72 hrs after infection; format: functional, organism-based; design: dose 30 mg/kg
Plasmodium gallinaceum [47] = experiment: Antimalarial activity against sporozoite-induced Plasmodium gallinaceum infected in white leghorn chicken assessed as disease cure from parasite infection at 15 mg/kg, sc administered 72 hrs after infection; format: functional, organism-based; design: dose 15 mg/kg
Plasmodium gallinaceum [48] = experiment: Antimalarial activity against sporozoite-induced Plasmodium gallinaceum infected in white leghorn chicken assessed as disease cure from parasite infection at 7.5 mg/kg, sc administered 72 hrs after infection; format: functional, organism-based; design: dose 7.5 mg/kg

## Nc1nc(N)c2cc(Sc3ccc(F)cc3)ccc2n1
Plasmodium gallinaceum [1]
  Activity: Active
Plasmodium gallinaceum [2]
  Activity: Active
Enterococcus faecalis
  MIC: < 0.25 µg/mL
Staphylococcus aureus [3]
  MIC: < 0.25 µg/mL
Staphylococcus aureus [4]
  MIC: < 0.25 µg/mL
Pseudomonas aeruginosa
  MIC: > 25 µg/mL
Escherichia coli
  MIC: < 0.25 µg/mL
Shigella sonnei
  MIC: < 0.25 µg/mL
Plasmodium gallinaceum [5]
  Activity: Active
Gallus gallus [6]
  Activity: Toxic
Plasmodium gallinaceum [7]
  Activity: Active
Gallus gallus [8]
  Activity: Toxic
Plasmodium gallinaceum [9]
  MST: 0.5 days
Plasmodium gallinaceum [10]
  Activity: Active
Plasmodium gallinaceum [11]
  MST: 0.5 days
Plasmodium gallinaceum [12]
  Activity: Active
Plasmodium gallinaceum [13]
  MST: 0.5 days
Plasmodium gallinaceum [14]
  Activity: Active
Plasmodium gallinaceum [15]
  MST: 6.5 days
Plasmodium gallinaceum [16]
  Activity: Active
Plasmodium berghei [17]
  MST: 13.5 days
Plasmodium berghei [18]
  MST: 11.1 days
Plasmodium berghei [19]
  MST: 7.1 days
Plasmodium berghei [20]
  MST: 6.1 days
Plasmodium berghei [21]
  MST: 5.3 days
Plasmodium berghei [22]
  Activity: Active
Plasmodium berghei [23]
  Activity: Active
Plasmodium berghei [24]
  Activity: Active
Plasmodium berghei [25]
  Activity: Active
Plasmodium berghei [26]
  Activity: Active
Plasmodium berghei [27]
  Activity: Active
Plasmodium berghei [28]
  SD90: 0.36 mg/kg/day
Plasmodium berghei [29]
  Ratio: 210
Plasmodium gallinaceum [30]
  MST: 19.3 days
Plasmodium gallinaceum [31]
  MST: 15.5 days
Plasmodium gallinaceum [32]
  MST: 13 days
Plasmodium gallinaceum [33]
  MST: 9.2 days
Plasmodium gallinaceum [34]
  MST: 7.8 days
Plasmodium gallinaceum [35]
  MST: 7.2 days
Plasmodium gallinaceum [36]
  MST: 5.8 days
Plasmodium gallinaceum [37]
  MST: 3.2 days
Plasmodium gallinaceum [38]
  MST: 0 days
Plasmodium gallinaceum [39]
  MST: 0 days

## Nc1nc(N)c2cc(NCc3ccc(Cl)c(Cl)c3)ccc2n1
Plasmodium gallinaceum [1]
  Activity: Active
Plasmodium gallinaceum [2]
  Activity: Active
Plasmodium gallinaceum [40]
  Activity: Active
Plasmodium gallinaceum [41]
  Activity: Active
Plasmodium gallinaceum [42]
  Activity: Active
Plasmodium gallinaceum [43]
  Activity: Active
Plasmodium gallinaceum [44]
  Activity: Active
Plasmodium gallinaceum [45]
  Activity: Active
Plasmodium gallinaceum [46]
  Activity: Active
Plasmodium gallinaceum [47]
  Activity: Active
Plasmodium gallinaceum [48]
  Activity: Active
Plasmodium berghei [22]
  Activity: Active
Plasmodium berghei [23]
  Activity: Active
Plasmodium berghei [24]
  Activity: Active
